Laboratory results: paper PMC13267291, “In vivo functional profiling and structural characterization of the human GLP1R A316T variant” (Science Advances, 2026)

Assays:
[1] = test system: SNAP/FLAG-hGLP1R^A316T versus ^WT; assay: High content microscopy GLP-1R internalization assay; format: cell-based, rat; settings: INS-1 832/3 sublines; 5-60 min; AUC; n = 3; Fig. 7G
Method: INS-1 832/3 Glp1r^−/− SNAP/FLAG-hGLP1R^WT or ^A316T cells were seeded onto poly-D-lysine–coated black 96-well plates for 24 hours before the assay. Cells were labeled for 30 min with 1 μM SNAP surface cleavable BG-SS-649 probe at 37°C and washed once with HBSS before treatment with GLP-1RA or vehicle for 60, 30, 15, or 5 min at 37°C in complete medium. Cells were then washed with cold HBSS, and subsequent steps were carried out at 4°C. The cell-impermeable reducing agent Mesna {100 mM in alkaline tris-NaCl-EDTA (TNE) buffer [20 mM tris-HCl, 1 mM EDTA, and 150 mM NaCl (pH 8.6)]} or alkaline TNE buffer without Mesna was applied for 5 min to cleave BG-SS-649 probe left at the cell surface and then washed with HBSS. […] Internalized GLP-1R, indicated by cell-associated fluorescence, was analyzed after flat-field correction of fluorescent images using the BaSiC plugin ([96]), segmentation of cell-containing regions from phase contrast images using Phantast ([97]), and fluorescence intensity quantification. The percentage of internalized receptor was calculated as follows F+Me(tx)/F−Me(tx)−F+Me(t0)/F−Me(t0)/1−F+Me(t0)/F−Me(t0) where F+Me and F−Me are mean fluorescence intensities ± Mesna at times tx (5, 15, 30, or 60 min) or t0 (0 min). […]

[2] = test system: SNAP/FLAG-hGLP1R^A316T versus ^WT; assay: Insulin secretion in transduced primary human islets; format: cell-based; settings: 11 mM glucose + 100 nM; n = 4; Fig. 6G,H
[3] = test system: hGLP1R^A316T/+ versus hGLP1R^+/+ mice; assay: IPGTT after GLP-1RA, HFHS-fed heterozygous mice; format: in vivo, mouse; settings: HFHS diet; 2 nmol/kg; n = 7; fig. S5G,H
Method: All animal procedures were approved by the British Home Office under the UK animals (Scientific Procedures) Act 1986 (Project License number PP7151519 to A. Martinez-Sanchez, Imperial College London, UK) and from the local ethical committee (Animal Welfare and Ethics Review Board) at the Central Biological Services unit of Imperial College London. Animals were housed in groups of up to four adult mice in individually ventilated cages under controlled conditions at 21° to 23°C with 12-hour:12-hour light-to-dark cycles (lights on at 07:00). Ad libitum access to water and feed was provided unless otherwise stated. Lean mice were fed a standard chow diet [RM1 (E); Special Diet Services]. For HFHS diet studies, animals were put on a 58 kcal % fat and sucrose diet (D12331, Research Diets Inc.) ad libitum for 10 to 14 weeks before experiments.
To examine acute and prolonged glycemic responses to GLP-1RAs, animals were fasted for 2 hours, starting at 8 a.m. on the morning of the experiments, before IPGTTs. GLP-1RAs were then coadministered at the indicated concentrations with 20% (w/v) D-glucose via intraperitoneal injection at weight-adjusted volumes. Baseline glucose readings were taken via tail venipuncture, and subsequent readings were taken at various time points after glucose ± GLP-1RA administration as for the OGTTs (0-hour acute IPGTTs). […]

Substance | A316T GLP-1R internalization versus WT [1] | Agonist-induced potentiation of insulin secretion, A316T versus WT [2] | Desensitization 6 hours postagonist, A316T/+ versus +/+ [3]
GLP-1(7-36)NH2 | significantly increased |  | 
exendin-4 |  | near-significant loss | significantly increased desensitization
